# Values of other authors in publication PMC7465391, “1,4-Disubstituted 1,2,3-Triazoles as Amide Bond Surrogates for the Stabilisation of Linear Peptides with Biological Activity” (Molecules, 2020).
# Where two headings read alike, the source gives them in different places.
# Tests used:
# cathepsin K = target: cathepsin K
# Excerpt: (§1) Table 7 Sequences of CatS1–2 and CatK1–2 and their reported biological properties. | column: Ki for CatK, pH 5.5 [nM] ^b || The Lalmanach group explored the stabilisation of peptidic inhibitors for cathepsin K and S [99]. These two proteins are cysteine proteases normally present in lysosomes and share a high homology. When found in the extracellular matrix, these enzymes are often overexpressed and dysregulated, making them innovative targets for new therapies for a range of medical conditions. Cathepsin K is considered as a target involved in osteoporosis whereas cathepsin S has been identified to play a role in autoimmune diseases and neuropathic pain [100, 101]. One strategy to identify inhibitors for prot ... || Another set of investigated peptidomimetics was based on a bradykinin-derived substrate, previously reported to be degraded by cathepsin K [103].
# cathepsin L = target: cathepsin L
# Excerpt: as §1, with “CatL,” for “CatK,”
"Ki (cathepsin K; reversible inhibition, read-out: Ki cathepsin K) [µM]","Ki (cathepsin L; pH 5.5, 37 °C, substrate Z-Phe-Arg-AMC, mean ± SEM of three experiments, read-out: Ki for CatL, pH 5.5) [µM]","Ki (cathepsin K; pH 5.5, 37 °C, substrate Z-Phe-Arg-AMC, mean ± SEM of three experiments, read-out: Ki for CatK, pH 5.5) [µM]","Ki (cathepsin L; reversible inhibition, read-out: Ki cathepsin L) [µM]",Substance
0.8,22,,,"Abz-Arg-Pro-Pro-GlyΨ[Tz]Phe-Ser-Pro-Phe-Arg-Tyr(3-NO2)-NH2 [CatK1, triazolo-peptidomimetic of a bradykinin-derived cathepsin K substrate]"
,,10,30,Ac-Gly-Arg-Trp-His-Pro-Met-GlyΨ[Tz]Ala-Pro-Trp-Glu-D-Ala-D-Arg-NH2 [CatS1]
